Assay results as given in ChEMBL document CHEMBL5113414, “New TRPM8 blockers exert anticancer activity over castration-resistant prostate cancer models” (Eur J Med Chem, 2022).
Blank lines part the entries; values can stand above or below the compound they belong to. Calls of active or inactive are those of the source. The calls are words filed in the database; no cut-off is given here.

Columns and labels:
[1] = target: T1, Transient receptor potential cation channel subfamily M member 8 (Rattus norvegicus, UniProt Q8R455); assay: Antagonist activity at rat TRPM8 channel transfected in HEK293 cells assessed as inhibition of calcium currents by Fluo-4 NW dye based fluorimetric assay; format: cell-based
T1 sequence (Q8R455 whole entry): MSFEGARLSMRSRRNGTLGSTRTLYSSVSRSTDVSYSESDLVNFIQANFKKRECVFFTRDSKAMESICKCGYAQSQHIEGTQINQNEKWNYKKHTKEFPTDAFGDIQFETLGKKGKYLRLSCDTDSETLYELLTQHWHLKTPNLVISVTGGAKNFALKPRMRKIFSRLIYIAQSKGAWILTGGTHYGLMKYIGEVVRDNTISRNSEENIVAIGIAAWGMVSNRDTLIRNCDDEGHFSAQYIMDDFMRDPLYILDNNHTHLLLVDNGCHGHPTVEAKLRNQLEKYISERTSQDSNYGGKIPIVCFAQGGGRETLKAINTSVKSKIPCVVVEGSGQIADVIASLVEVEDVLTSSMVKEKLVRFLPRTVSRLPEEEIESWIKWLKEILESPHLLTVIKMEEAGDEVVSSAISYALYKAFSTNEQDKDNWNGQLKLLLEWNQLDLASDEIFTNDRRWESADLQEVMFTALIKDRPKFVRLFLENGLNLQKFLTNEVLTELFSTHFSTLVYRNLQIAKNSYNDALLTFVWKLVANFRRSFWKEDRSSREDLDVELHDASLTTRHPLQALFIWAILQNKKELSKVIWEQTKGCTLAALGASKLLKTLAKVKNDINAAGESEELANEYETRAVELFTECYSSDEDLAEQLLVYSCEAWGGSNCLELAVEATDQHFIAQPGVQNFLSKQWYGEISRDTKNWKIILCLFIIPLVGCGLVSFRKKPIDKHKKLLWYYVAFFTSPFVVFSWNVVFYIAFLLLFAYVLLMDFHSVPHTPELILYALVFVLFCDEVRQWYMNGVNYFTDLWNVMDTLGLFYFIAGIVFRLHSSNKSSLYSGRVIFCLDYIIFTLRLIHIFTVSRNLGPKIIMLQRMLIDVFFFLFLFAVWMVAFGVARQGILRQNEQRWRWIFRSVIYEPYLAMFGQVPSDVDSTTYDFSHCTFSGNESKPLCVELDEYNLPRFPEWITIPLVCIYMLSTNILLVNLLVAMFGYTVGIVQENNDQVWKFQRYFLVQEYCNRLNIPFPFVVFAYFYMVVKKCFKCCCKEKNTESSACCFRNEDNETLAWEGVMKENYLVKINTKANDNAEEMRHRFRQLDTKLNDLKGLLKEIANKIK

[2] = target: T1, Transient receptor potential cation channel subfamily M member 8; assay: Antagonist activity at rat TRPM8 channel transfected in HEK293 cells assessed as inhibition of menthol-induced calcium currents at -60 mV measured for 90 secs by whole cell patch clamp method; format: cell-based
[3] = target: Transient receptor potential cation channel subfamily M member 8 (Rattus norvegicus) (UniProt Q8R455); assay: Inhibition of rat TRPM8 channel transfected in HEK293 cells assessed as inhibition of menthol-induced calcium currents at 0.01 to 10 uM at -60 mV measured for 90 secs by whole cell patch clamp method; format: cell-based; conditions: dose 0.01-10 µM, time 90.0 sec, DDE = dose-dependent effect
Sequence of Transient receptor potential cation channel subfamily M member 8 (Rattus norvegicus) (Q8R455 whole entry, looked up): as the sequence (Q8R455 whole entry) above

[4] = test system: LNCaP; assay: Inhibition of R1881-induced DNA synthesis in human LNCaP cells at 0.01 to 10 uM incubated for 18 hrs by BrdU incorporation assay; format: functional, cell-based; conditions: dose 0.01-10 µM
[5] = test system: CWR22R; assay: Inhibition of R1881-induced DNA synthesis in human 22Rv1 cells at 1 to 10 uM incubated for 18 hrs by BrdU incorporation assay; format: functional, cell-based; conditions: dose 1-10 µM
[6] = test system: LNCaP C4-2B; assay: Inhibition of androgen-resistant human LNCaP C4-2B cells at 1 uM incubated for 18 hrs by BrdU incorporation assay; format: functional, cell-based
[7] = test system: LNCaP C4-2B; assay: Inhibition of androgen-resistant human LNCaP C4-2B cells at 0.1 uM incubated for 18 hrs by BrdU incorporation assay; format: functional, cell-based
[8] = test system: PNT2; assay: Inhibition of R1881-induced DNA synthesis in human PNT2 cells at 10 uM incubated for 18 hrs by BrdU incorporation assay; format: functional, cell-based
[9] = test system: PNT2; assay: Inhibition of DNA synthesis in human PNT2 cells at 0.01 to 10 uM incubated for 18 hrs by BrdU incorporation assay; format: functional, cell-based; conditions: dose 0.01-10 µM
[10] = test system: PC-3; assay: Inhibition of DNA synthesis in human PC-3 cells at 0.01 to 10 uM incubated for 18 hrs by BrdU incorporation assay; format: functional, cell-based; conditions: dose 0.01-10 µM
[11] = test system: LNCaP; assay: Inhibition of R1881-induced cell spheroid size of human LNCaP cells at 1 uM with medium replacement for every 3 days incubated for 17 days by phase contrast microscopy; format: functional, cell-based; conditions: time 17.0 day
[12] = test system: CWR22R; assay: Inhibition of R1881-induced cell spheroid size of human 22Rv1 cells at 1 uM with medium replacement for every 3 days incubated for 17 days by phase contrast microscopy; format: functional, cell-based; conditions: time 17.0 day
[13] = test system: PNT2; assay: Inhibition of R1881-induced DNA synthesis in human PNT2 cells at 1 uM incubated for 18 hrs by BrdU incorporation assay; format: functional, cell-based

SMILES: O=C1[C@@H]2Cc3cc(O)c(O)cc3[C@@H](c3ccc(F)cc3)N2C(=O)N1Cc1ccc(F)cc1
IC50 [1]: 1700 nM

SMILES: COC(=O)[C@H](Cc1ccc([N+](=O)[O-])cc1)N(Cc1ccccc1)Cc1ccccc1
IC50 [1]: 110 nM | IC50 [2]: 60 nM | inhibition [3]: Dde | inhibition [4]: Active | inhibition [5]: Active | inhibition [6]: Active | inhibition [7]: Active | inhibition [8]: Active | inhibition [9]: Active | inhibition [10]: Active | inhibition [11]: Active | inhibition [12]: Active

SMILES: COC(=O)[C@H](Cc1ccccc1)N(Cc1ccccc1)Cc1ccccc1
IC50 [1]: 320 nM

SMILES: COC(=O)[C@H](Cc1ccc(O)cc1)N(Cc1ccccc1)Cc1ccccc1
IC50 [1]: 250 nM

SMILES: O=C1[C@@H]2Cc3cc(O)c(O)cc3[C@@H](c3ccc(F)cc3)N2C(=O)N1c1cccc(C(F)(F)F)c1
IC50 [1]: 1200 nM

SMILES: COC(=O)[C@H](Cc1ccc(C)cc1)N(Cc1ccccc1)Cc1ccccc1
IC50 [1]: 290 nM

SMILES: O=C1[C@H]2Cc3cc(O)c(O)cc3[C@H](c3ccc(F)cc3)N2C(=O)N1c1cccc(C(F)(F)F)c1
IC50 [1]: 2100 nM

SMILES: O=C(NCc1ccc(F)cc1)[C@@H]1Cc2cc(O)c(O)cc2[C@@H](c2ccc(F)cc2)N1
IC50 [1]: 850 nM

The remaining compounds from weak to strong by IC50 [1], led by results:

IC50 [1]: 17500 nM
SMILES: O=C(NCc1ccc(F)cc1)[C@@H]1Cc2cc(O)c(O)cc2[C@H](c2ccc(F)cc2)N1

IC50 [1]: 2200 nM
SMILES: O=C1[C@H]2Cc3cc(O)c(O)cc3[C@H](c3ccc(F)cc3)N2C(=O)N1Cc1ccc(F)cc1

IC50 [1]: 490 nM | IC50 [2]: 100 nM | inhibition [3]: Dde
SMILES: COC(=O)[C@H](Cc1ccc(O)c(O)c1)N(Cc1ccccc1)Cc1ccccc1
inhibition [5]: Active | inhibition [6]: Active | inhibition [8]: Active | inhibition [9]: Active | inhibition [10]: Active | inhibition [11]: Active | inhibition [12]: Active

IC50 [1]: 280 nM
SMILES: COC(=O)[C@H](Cc1ccc(Cl)cc1)N(Cc1ccccc1)Cc1ccccc1

IC50 [1]: 210 nM | IC50 [2]: 110 nM | inhibition [3]: Dde
SMILES: COC(=O)[C@H](Cc1ccc(N)cc1)N(Cc1ccccc1)Cc1ccccc1
inhibition [4]: Active | inhibition [5]: Active | inhibition [6]: Active | inhibition [8]: Active | inhibition [13]: Active | inhibition [9]: Active | inhibition [10]: Active | inhibition [11]: Active | inhibition [12]: Active
